Laboratory results: PMC5068727, “Low-dose oxytocin delivered intranasally with Breath Powered device affects social-cognitive behavior: a randomized four-way crossover trial with nasal cavity dimension assessment” (Translational Psychiatry, 2015)

What was measured:
Assay type in all cases: in vivo, human
healthy male adults [1] = assay: Social cognition task: emotional and trustworthiness ratings of facial images; settings: 1 IU IV over 20 min, estimated mean (SE), linear mixed model, SEM
Procedure: Participants completed the social cognition task 40 min after treatment in a magnetic resonance imaging scanner while functional magnetic resonance imaging and physiology data were recorded (results to be reported separately). Participants were presented with visual stimuli through magnetic resonance imaging-compatible goggles (VisualSystem; NordicNeuroLab, Bergen, Norway) using E-Prime 2.0 (Psychology Software Tools, PA, USA) and responded using a grip response collection system (ResponseGrip, NordicNeuroLab).
For the primary emotional expression evaluation outcome measure, participants were presented with 20 male and 20 female faces (as used previously[55]) displaying angry, happy and emotionally ambiguous facial expressions (derived from the Karolinska Directed Emotional Faces database[56]) and 20 images of geometrical shapes (data not presented). Following each presentation, participants were asked either: How angry is this person? (anchors: not angry—very angry) or How happy is this person? (anchors: not happy—very happy). Q2 was always the same: How much would you trust this person? (anchors: not at all—very much). Participants were asked to rank their answer on a visual analog scale from 1 to 5, with location of the cursor on the visual analog scale randomized for each question. Mean ratings for each of the questions were averaged per session within each of the emotional categories, yielding seven behavioral variables (Q1: Happy face—happy, Happy face—angry, ambiguous face—happy, ambiguous face—angry, angry face—happy, angry face—angry; Q2: Trust). These stimuli and questions were chosen to assess three levels of emotion perception; ambiguous, non-ambiguous with corresponding cues and ratings (for example, angry ratings of angry faces) and non-ambiguous with conflicting cues and ratings (for example, angry ratings of happy faces).
(§1) Analysis was conducted using IBM SPSS Statistics version 22 (IBM, Armonk, NY, USA) to explore pharmacokinetics and examine the impact of treatment on outcome measures. A linear mixed-model (LMM) approach was adopted[58] for the analysis of emotional expression evaluation, pharmacokinetics, state anxiety and trustworthiness. In contrast to a repeated-measures analysis of variance approach, LMM allows for the inclusion of participants in the analysis even if data are missing for some of the treatment conditions. All the models were fitted using an unstructured matrix. For any significant main effects (that is, P<0.05), post hoc tests were performed with the adjustment of critical P-values to correct for multiple comparisons using a 5% false discovery rate.[59] Experimental treatment was both a fixed and repeated effect in the LMM testing the impact of treatment on emotion and trustworthiness ratings. To investigate the impact of treatment on anxiety and blood plasma concentration of OT, AVP and cortisol, an LMM was fitted with three fixed factors (treatment, time, treatment × time) and one repeated factor (treatment).

[2] = Oxytocin blood plasma concentration (ELISA); settings: 1 IU IV over 20 min
Procedure: (§2) Blood samples were collected to assess peripheral levels of OT, AVP and cortisol at baseline and five time points after the completion of the 20-min IV administration (0, 10, 30, 60 and 120 mins) throughout the session. Up to two punctures with catheter placement were made to collect these blood samples, which were centrifuged at 4 °C within 5 min of blood draw with plasma frozen at −80 °C. Enzyme-linked immunosorbent assay using commercial kits (Enzo Life Sciences, Farmingdale, NY, USA) was performed using standard techniques (including sample extraction[57]).
as §1, with “Experimental treatment was both a fixed and repeated effect in the LMM testing the impact of treatment on emotion and trustworthiness ratings. To investigate the impact of treatment on anxiety and blood plasma concentration of OT, AVP and cortisol, an LMM was fitted with three fixed factors (treatment, time, treatment × time) and one repeated factor (treatment).” left out

cortisol = assay: Cortisol blood plasma concentration (ELISA); settings: 1 IU IV, LMM pairwise comparison
Procedure: as §2, §1

healthy male adults [3] = assay: Self-reported adverse events; settings: 1 IU IV; 16 healthy males, single dose
Procedure: At various points (−20, 0, 10, 30, 60 and 120 mins relative to start of functional magnetic resonance imaging) throughout testing, participants reported the presence and severity of any adverse effects.

[4] = Open label pilot study of peripheral OT pharmacokinetics; settings: 5 participants, 1IU IV in 200ml 0.9% NaCl, 600ml/hour over 20 minutes, 30 to 60 minutes post-administration
Procedure: An open label pilot study comparing the pharmacokinetics of 24IU OPN-OT and 1IU IV-OT was conducted with 5 eligible participants (4 of these participants participated in the main study) to ensure that 1IU IV-OT would equal or exceed the serum exposure following IN-OT treatment. The IV OT (1IU) was mixed in 200ml 0.9% NaCl and administered at an infusion rate of 600ml/hour over 20 minutes. Blood was sampled just before administration (baseline) and at seven timepoints after completion of administration (10, 20, 30, 45, 60, 90, and 120 minutes). […] There was a one-month washout period, at the minimum, between participation in the pilot study and the experimental phase.

In the case of `CC[C@H](C)[C@@H]1NC(=O)[C@H](Cc2ccc(O)cc2)NC(=O)[C@@H](N)CSSC[C@@H](C(=O)N2CCC[C@H]2C(=O)N[C@@H](CC(C)C)C(=O)NCC(N)=O)NC(=O)[C@H](CC(N)=O)NC(=O)[C@H](CCC(N)=O)NC1=O` [IV OT, oxytocin], the “Angry ratings of ambiguous faces” value (healthy male adults [1]; single dose, task 40 min after treatment, visual analog scale 1 to 5, 16 healthy males) is reported as 2.32 (0.18), the Trustworthiness (healthy male adults [1]; collapsed across emotional categories, scale 1 to 5) is reported as 3.16 (0.05) and the “Angry ratings of angry faces” value (healthy male adults [1]; scale 1 to 5) is reported as 3.68 (0.2). The “Angry ratings of happy faces” value (healthy male adults [1]; scale 1 to 5) was 1.24 (0.02), the “Happy ratings of ambiguous faces” value (healthy male adults [1]; scale 1 to 5) was 2.38 (0.14) and the “Happy ratings of happy faces” value (healthy male adults [1]; scale 1 to 5) was 4.31 (0.13). For the same compound, the “Plasma OT concentration compared with placebo” value ([2]; baseline and 0, 10, 30, 60, 120 min, ELISA with extraction, LMM pairwise comparison, P<0.001) was “significantly increased”, the “Plasma OT concentration, simple effect for time” value ([2]; shortly after IV administration compared with all other time points, all P<0.001) was “significantly higher concentrations shortly after IV administration” and the “Cortisol blood plasma concentration compared with 8 IU OPN-OT” value (cortisol) was “but not 8 IU OPN-OT”. The “Cortisol blood plasma concentration compared with 24 IU OPN-OT” value (cortisol; P<0.001) was “significantly increased”, the “Cortisol blood plasma concentration compared with placebo” value (cortisol; P=0.01) was “significantly increased” and the “Adverse events (for example, brief dizziness)” value (healthy male adults [3]) was “three”. For the same compound, the “Peripheral (serum) OT levels relative to 24IU OPN-OT” value [4] was “reasonably approximated the levels achieved after 24IU OPN-OT administration”.
